Experimental data from patent US20240415793A1, “Neuroprotective composition comprising pyruvate and citrate” (N.V. Nutricia, priority 2022, published 2024).

Test system: neuroglial cell cultures
Experiment: Seahorse assay (OCR/ECAR), 24-hour incubation with citrate under resting conditions
Type: cell-based, rat
Details: 0.8 mM Mg2+, vs control medium; for increase in basal glycolytic rates: FIG. 5A; for increase in OM-induced increase in glycolytic rates: FIG. 5B; for increase in FCCP-induced maximal glycolytic capacity: FIG. 5C
Method: The oxygen consumption rates (OCRs) and extracellular acidification rates (ECARs) of cells seeded in 96-well plates were monitored in real time at 37° C. in unbuffered Hanks Balanced Salt Solution (HBSS). The OCRs represent foremost mitochondrial respiration, and to a minor extent non-mitochondrial respiration. The ECARs relate foremost to the acidification of the medium with lactate produced through glycolysis and secreted by the cells into the medium (Table 1).
During the Seahorse run, both the OCRs and ECARs were measured simultaneously at baseline and following the injection of compounds by the Seahorse instrument (Table 1). HBSS was supplemented with glucose from the start and no glucose was injected through the Seahorse instruments. Measurements were repeated three times at baseline and three times after each compound injection.
After the initial baseline measurement, oligomycin (OM) was injected. OM blocks mitochondrial ATP synthase (complex V) and therefore decreases mitochondrial respiration. The OCRs after OM injection are due to the mitochondrial proton leak. They enable to determine whether the test nutrients impact the proton leak. The difference in OCRs at baseline and after OM injection is the amount of oxygen used for mitochondrial ATP synthesis at baseline. From this difference in OCR, the mitochondrial ATP production rates are calculated.
After OM, uncoupling agent carbonyl cyanide-p- trifluoromethoxyphenyl-hydrazon [FCCP] was injected which collapses the proton gradient across the inner mitochondrial membrane established during respiration and required for ATP synthesis. The cells attempt to restore the proton gradient following FCCP injection by maximizing respiration. The OCRs measured after FCCP injection therefore represent the maximal respiratory capacity of the mitochondria in the sample and enable to determine whether test nutrients impact the maximal respiratory capacity of the mitochondria.
Finally, Antimycin A, a complex III inhibitor, and Rotenone, a complex I inhibitor, were co-injected, both blocking the respiratory chain at different sites to entirely shut down mitochondrial respiration and determine the non-mitochondrial respiration. The latter is necessary to correct all OCRs and obtain the mitochondrial OCRs.
The ECARs were measured simultaneously at baseline and after OM and FCCP injection. The glycolytic ATP production was calculated from the baseline ECARs. The subsequent injection of OM pushed the cells to maximize their glycolytic ATP production to compensate for the loss in mitochondrial ATP production inflicted by OM. The further addition of FCCP drove mitochondrial respiration to a maximum and this eventually led to a further increase in glycolytic rates providing pyruvate into the TCA cycle to sustain maximal respiration. Therefore, the ECARs after FCCP injection were used to determine the maximum glycolytic capacity of the cells.
Further, the effects of a 24-hour incubation with citrate on glycolysis, mitochondrial respiration and total (glycolytic and mitochondrial) energy (ATP) production under resting conditions was assessed. Neuroglial cell cultures were grown in Neurobasal medium (NBM) supplemented with B27, high (25 mM) glucose, and high (0.8 mM) Mg2+ from DIV0 until DIV14. They were switched to NBM supplemented with B27, low (5 mM) glucose, and high (0.8 mM) Mg^2+ from DIV14 until DIV16. On DIV16, the medium was exchanged for DMEM (which is, in contrast to HBSS, not a nutrient-deprived medium) containing low (5 mM) glucose, high (0.8 mM) Mg^2+ and 500 μM or 1 mM citrate. On DIV17, one hour prior to the Seahorse run, the medium was replaced with unbuffered DMEM containing low (5 mM) glucose, high (0.8 mM) Mg^2+ and 500 μM or 1 mM citrate. The cells were left in this medium until the end of the run. Five repeats per condition were done.

With O=C(O)CC(O)(CC(=O)O)C(=O)O [citrate] the “increase in basal mitochondrial respiration” value (500 μM and 1 mM citrate, FIG. 4B) was ~60%, the “increase in FCCP-induced maximal mitochondrial respiratory capacity” value (500 μM and 1 mM citrate, FIG. 4C) was 60-70% and the “increase in basal mitochondrial and glycolytic ATP production” value (500 μM and 1 mM citrate, DMEM 5 mM glucose, FIG. 4A) was ~45%. For the same molecule, the “increase in basal glycolytic rates” value (500 μM citrate) was ~45%, the “increase in OM-induced increase in glycolytic rates” value (500 μM citrate) was ~70% and the “increase in FCCP-induced maximal glycolytic capacity” value (500 μM citrate) was ~75%. The “increase in basal glycolytic rates” value (1 mM citrate) was ~20%, the “increase in OM-induced increase in glycolytic rates” value (1 mM citrate) was ~30% and the “increase in FCCP-induced maximal glycolytic capacity” value (1 mM citrate) was ~50%.
